# Structures can show the parent of a compound that is named as a salt. Where two headings read alike, the source gives them in different places.
# Key:
# rodent = details: literature reports; cited from earlier work
# histamine H3 receptor [1] = molecular target: T1, histamine H3 receptor (Rattus norvegicus, UniProt Q9QYN8); details: following oral administration to the rat; cited from earlier work
# T1 construct: from tissue; host or cells: rat cortex
# rats = details: certain oral doses; cited from earlier work
# histamine H3 receptor [2] = molecular target: T2, histamine H3 receptor (Homo sapiens, UniProt Q9Y5N1); experiment: histamine H3 functional antagonist assay using membrane prepared from cultured H3 cells; format: biochemical
# T2 construct: host or cells: cultured H3 cells (membranes)
# T2 sequence (Q9Y5N1 whole entry): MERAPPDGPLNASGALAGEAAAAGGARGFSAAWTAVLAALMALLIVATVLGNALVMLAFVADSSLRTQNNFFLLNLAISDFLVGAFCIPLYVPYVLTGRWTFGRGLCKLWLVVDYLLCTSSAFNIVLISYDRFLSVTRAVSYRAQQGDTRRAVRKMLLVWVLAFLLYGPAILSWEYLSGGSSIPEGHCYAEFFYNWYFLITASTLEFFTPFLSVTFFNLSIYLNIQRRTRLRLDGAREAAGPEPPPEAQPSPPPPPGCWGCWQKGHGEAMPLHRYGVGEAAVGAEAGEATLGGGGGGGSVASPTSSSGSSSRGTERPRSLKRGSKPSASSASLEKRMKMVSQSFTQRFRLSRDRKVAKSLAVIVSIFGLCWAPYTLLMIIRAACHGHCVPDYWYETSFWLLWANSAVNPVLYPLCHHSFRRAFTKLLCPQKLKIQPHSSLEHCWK
# Experimental: 1-Isopropyl-4-{[4-(tetrahydro-2H-pyran-4-yloxy)phenyl]carbonyl}hexahydro-1H-1,4-diazepine hydrochloride was tested using substantially the histamine H3 functional antagonist assay disclosed on pages 47-49, and in particular page 48 line 26 to page 49 line 7, of WO 2009/030716 A1 (Glaxo Group Limited). The result is expressed as a functional pKi (fpKi) value. A functional pKi is the negative logarithm of the antagonist equilibrium dissociation constant as determined in the H3 functional antagonist assay using membrane prepared from cultured H3 cells. The result given is an average of a number of experiments.
# [3] = Gravimetric vapour sorption (GVS), water sorption/desorption isotherm at varying relative humidity; format: physicochemical; details: for water reversibly adsorbed and/or absorbed, and/or desorbed (GVS): relative to minimum mass; for weight gain relative to the minimum mass at 0% RH (GVS) / weight gain cf. minimum mass (GVS): 25° C.
# Experimental: Gravimetric vapour sorption (GVS) data were acquired on a Hiden IGA-Sorp analyser model (available from Hiden Isochema Ltd., 231 Europa Boulevard, Gemini Business Park, Warrington WA5 7TN, United Kingdom), generating a full sorption/desorption isotherm using water vapour perfusion at 25° C. under nitrogen gas and at varying relative humidities (RH).
# 23 milligrams of a sample of the crystalline Form 1 of 1-isopropyl-4-{[4-(tetrahydro-2H-pyran-4-yloxy)phenyl]carbonyl}hexahydro-1H-1,4-diazepine mono-maleate prepared in Example 4 were placed into a clean and dry tared sample mesh pan and weighed using the IGA-Sorp internal balance.
# (i) starting from about 30% RH and increasing to about 90% RH in increments of about 10% RH (results shown as the solid line in the middle and on the right of FIG. 5), and then (ii) decreasing from about 90% RH to 0% RH in increments of about 10% RH (results shown as the dotted line in FIG. 5), and then (iii) increasing from 0% RH to about 30% RH, in increments of about 5% RH up to ca. 10% RH, and then in increments of about 10% RH from ca. 10% to ca. 30% RH (results shown as the solid line on the left of FIG. 5).
# The weight of the sample was recorded after each ca. 10% RH increment. The point of equilibrium, after each ca. 10% RH increment, was automatically determined using a 97% asymptote setting.
# Gravimetric Vapour Sorption (GVS) data, on the solid 1-isopropyl-4-{[4-(tetrahydro-2H-pyran-4-yloxy)phenyl]carbonyl}hexahydro-1H-1,4-diazepine hydrochloride from Example 2, Part C (the “kinetic” solid hydrochloride salt produced by fast crystallisation, and before purification by recrystallisation), were acquired on a DVS-1 SMS model (available from Surface Measurement System (SMS)), generating a full sorption/desorption isotherm using water vapour perfusion at 25° C. under nitrogen gas and at varying relative humidities (RH).
# 22 milligrams of the specified solid hydrochloride salt sample were placed into a clean and dry tared sample glass pan and weighed using the DVS-1 internal balance.
# (i) starting from about 30% RH and increasing to about 90% RH in increments of about 10% RH (results shown as the line in the middle and on the right of FIG. 6, going from ca. 7-8% weight gain cf. minimum mass at ca. 30% RH, to ca. 14-15% weight gain cf. minimum mass at ca. 90% RH), and then (ii) decreasing from about 90% RH to 0% RH in increments of about 10% RH (results shown as the line in FIG. 6, starting from ca. 14-15% weight gain cf. minimum mass at ca. 90% RH, going towards the left almost horizontally to ca. 14% weight gain at ca. 30% RH, and then going rapidly down to 0% weight gain at 0% RH), and then (iii) increasing from 0% RH to about 30% RH in increments of about 10% RH (results shown as the line on the bottom left of FIG. 6, going from 0% weight gain at 0% RH to about 2% weight gain at ca. 30% RH).
# The weight of the sample was recorded after each ca. 10% RH increment. The point of equilibrium was automatically determined using a 0.02 dm/dt setting.
# [4] = Hygroscopicity and stability of the solid diazepine intermediate salts in air; format: physicochemical; details: for hygroscopicity of the solid: air at normal humidities, normal relative humidity (e.g. ca. 30%) at 25° C.
# Source text: (i) The use of 1-isopropyl-hexahydro-1H-1,4-diazepine bis-trifluoroacetate allows the avoidance of the use of toxic dioxane in the preparation of 1-(isopropyl)-hexahydro-1H-1,4-diazepine dihydrochloride (from the BOC-protected precursor e.g. Intermediate 1), which preparation typically (see e.g. Intermediate 2 herein) uses HCl (e.g. 4M HCl) in dry dioxane (to avoid the water present in aqueous hydrochloric acid) in order to obtain solid 1-(isopropyl)hexahydro-1H-1,4-diazepine dihydrochloride. […] This hygroscopicity makes it difficult to quantify and weigh the dihydrochloride salt for the coupling reaction, and also can lead to the presence of undesired water in the coupling reaction (e.g. with DCI).
# [5] = Karl Fischer analysis of water content; format: physicochemical; details: normal United Kingdom room humidity
# Experimental: A Karl Fischer analysis of water content was carried out on the crystalline Form 1 mono-maleate salt prepared in Example 4 (at normal United Kingdom room humidity). This Karl Fischer analysis reported a water content of less than 0.1% w/w.
# [6] = across the 0-90% relative humidity range at 25° C. under nitrogen
# T1 sequence (Q9QYN8 whole entry): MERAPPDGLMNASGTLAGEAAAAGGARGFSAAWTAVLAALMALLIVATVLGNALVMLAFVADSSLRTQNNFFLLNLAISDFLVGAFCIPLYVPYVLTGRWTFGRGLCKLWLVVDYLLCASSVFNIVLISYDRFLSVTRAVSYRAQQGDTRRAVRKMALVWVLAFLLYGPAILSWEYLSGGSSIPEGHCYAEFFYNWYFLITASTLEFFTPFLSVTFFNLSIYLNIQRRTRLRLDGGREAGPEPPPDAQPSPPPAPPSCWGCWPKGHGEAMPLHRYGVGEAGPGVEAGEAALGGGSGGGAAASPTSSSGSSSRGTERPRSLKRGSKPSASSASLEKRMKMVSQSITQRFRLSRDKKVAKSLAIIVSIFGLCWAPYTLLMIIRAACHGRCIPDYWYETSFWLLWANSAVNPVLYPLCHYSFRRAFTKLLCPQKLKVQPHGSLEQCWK
smiles,measurement,setting,value
S=C(NC1CCCCC1)N1CCC(c2cnc[nH]2)CC1 [thioperamide],cognitive effect in rodent models,rodent,cognitive enhancing properties
CNC(=O)c1ccc(Oc2ccc3c(c2)CCN(C2CCC2)CC3)nc1 [GSK189254],ex vivo binding in the rat cortex,histamine H3 receptor [1],inhibited
same,performance in cognition paradigms,rats,improved performance
"CC(C)N1CCCN(C(=O)c2ccc(OC3CCOCC3)cc2)CC1.Cl [Example 2 Part C, 1-Isopropyl-4-{[4-(tetrahydro-2H-pyran-4-yloxy)phenyl]carbonyl}hexahydro-1H-1,4-diazepine hydrochloride]",Ki,"histamine H3 receptor [2]; 12 experiments, read-out: range of measured fpKi values",0.501 to 20 nM
same,Ki,"histamine H3 receptor [2]; mean of 12 experiments, read-out: functional pKi (fpKi), H3 antagonism (converted)",~5.01 nM
same,water sorption compared with crystalline Form 1 mono-maleate (GVS),[3]; [6],higher quantities of water
same,"water reversibly adsorbed and/or absorbed, and/or desorbed (GVS)",[3]; [6],14-15 % w/w
same,weight gain relative to the minimum mass at 0% RH (GVS),"[3]; at about 30% RH, start of first sorption",7-8 % w/w
same,weight gain relative to the minimum mass at 0% RH (GVS),"[3]; at about 90% RH, end of first sorption",14-15 % w/w
same,weight gain cf. minimum mass (GVS),[3]; at ca. 30% RH on desorption from ca. 90% RH,ca. 14%
same,weight gain cf. minimum mass (GVS),[3]; at ca. 30% RH on re-sorption from 0% RH,about 2%
"CC(C)N1CCCN(C(=O)c2ccc(OC3CCOCC3)cc2)CC1 [Example 2 Part A, 1-Isopropyl-4-{[4-(tetrahydro-2H-pyran-4-yloxy)phenyl]carbonyl}hexahydro-1H-1,4-diazepine]","water reversibly adsorbed and/or absorbed, and/or desorbed (GVS)",[3]; [6],0.4-0.5 % w/w
"CC(C)N1CCCNCC1.Cl.Cl [Intermediate 2, 1-Isopropyl-hexahydro-1H-1,4-diazepine dihydrochloride]",hygroscopicity of the solid,[4],very hygroscopic
CC(C)(C)CCC#C[C@@H]1C[C@H]1c1c[nH]cn1 [GT-2331],cognitive effect in rodent models,rodent,cognitive enhancing properties
NC(=NCc1ccc(Cl)cc1)SCCCc1cnc[nH]1 [clobenpropit],cognitive effect in rodent models,rodent,cognitive enhancing properties
O=C(c1ccc(OCCCc2cnc[nH]2)cc1)C1CC1 [ciproxifan],cognitive effect in rodent models,rodent,cognitive enhancing properties
"CC(C)N1CCCN(C(=O)c2ccc(OC3CCOCC3)cc2)CC1.O=C(O)/C=C\C(=O)O [Example 4, 1-Isopropyl-4-{[4-(tetrahydro-2H-pyran-4-yloxy)phenyl]carbonyl}hexahydro-1H-1,4-diazepine mono-maleate salt (crystalline Form 1)]",water content (Karl Fischer),[5],less than 0.1 % w/w
"CC(C)N1CCCNCC1 [Intermediate 3, 1-Isopropyl-hexahydro-1H-1,4-diazepine bis-trifluoroacetate salt]",stability of the solid,[4],long-term stability
same,hygroscopicity of the solid,[4],substantially non-hygroscopic

# — patent US20110190274A1, “SALT OF, AND PROCESSES FOR THE PREPARATION OF, 1-ISOPROPYL-4-HEXAHYDRO-1H-1,4-DIAZEPINE” (GLAXO GROUP LIMITED, priority 2008, published 2011)
